These results are taken from PubChem BioAssay (NCI).

Where “and” joins values, the source holds several entries; their conditions need not be identical. Equal entries are not always repeated.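 Following 48 hours of exposure in 96-well plates, responses at five concentrations were used to interpolate endpoints linearly. GI50 = concentration required for 50% inhibition of growth. TGI marks complete inhibition of growth.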

For orientation: GI50 means the concentration giving 50% growth inhibition. Broadly, the TGI is the concentration at which net growth stops. A low value points to greater sensitivity of the cells.

Test systems include MOLT-4 leukemia; BT-549 breast; HOP-92 NSCLC; SN12C renal; EKVX NSCLC; SK-MEL-2 melanoma; SF-268 CNS; HT29 colon.
What all share (experiment): DTP human tumour cell line panel, 48 h

Consider `O=C(CNc1ccc(Cl)cc1)Nc1ccc(-c2nc3ccccc3s2)cc1`, for which the GI50 in the assay with MOLT-4 leukemia was 0.811 µM; in the assay with BT-549 breast, 1.83 µM; in the assay on HOP-92 NSCLC it was 1.91 µM; in the assay on SN12C renal, 3.07 µM; in the assay with EKVX NSCLC, 8.02 µM; in the assay on SK-MEL-2 melanoma it was 8.96 µM. Moreover, the GI50 in the assay with SF-268 CNS was 3.38 µM; in the assay with HT29 colon, 3.8 µM. The TGI in the assay with MOLT-4 leukemia is over 26.6 µM; with BT-549 breast, 4.7 µM; with HOP-92 NSCLC, 5.17 µM; with SN12C renal it was 10.5 µM; in the assay with EKVX NSCLC it was 24.5 µM; in the assay with SK-MEL-2 melanoma, 30.8 µM. The values for the TGI with SF-268 CNS and in the assay on HT29 colon were 10.8 µM and 11.4 µM, respectively.
Turning to `N#Cc1c(NN)n(C2OC(CO)C(O)C2O)c2ncnc(N)c12` (configuration not stated), the GI50 with MOLT-4 leukemia was 0.095 µM; with BT-549 breast, 0.271 µM; in the assay on HOP-92 NSCLC, 0.142 µM; with SN12C renal it was 0.151 µM; in the assay on EKVX NSCLC it was 0.209 µM; in the assay with SK-MEL-2 melanoma, 0.282 µM. Moreover, the GI50 with SF-268 CNS is 0.171 µM; in the assay with HT29 colon, 0.0351 µM. Further, the TGI in the assay with MOLT-4 leukemia is 0.402 µM; with BT-549 breast, 2.8 µM; in the assay on HOP-92 NSCLC, 1.43 µM; in the assay on SN12C renal, over 47.5 µM; in the assay on SK-MEL-2 melanoma, 0.946 µM; in the assay with SF-268 CNS, over 45.3 µM.
`CCCCCCNC(=O)c1cc(NCc2cc(O)ccc2O)ccc1O`: the GI50 with MOLT-4 leukemia was 1.2 µM; in the assay on BT-549 breast, 1.14 µM; with HOP-92 NSCLC, 1.66 µM; in the assay on SN12C renal it was 4.75 µM; in the assay on EKVX NSCLC it was 7.69 µM; in the assay on SK-MEL-2 melanoma it was 11.9 µM. Also, the values for the GI50 with SF-268 CNS and in the assay on HT29 colon were 3.79 µM and 21.6 µM, respectively. Moreover, the TGI with MOLT-4 leukemia was 13.4 µM; in the assay on BT-549 breast it was 4.27 µM; with HOP-92 NSCLC, 5.03 µM; in the assay with SN12C renal, 17.4 µM; in the assay on EKVX NSCLC, 25.2 µM; with SK-MEL-2 melanoma it was 34.5 µM. For the same molecule, the TGI in the assay on SF-268 CNS was 18.1 µM; in the assay with HT29 colon it was 44.3 µM.
As for `CCN(CC)CCC(CNc1ccnc2cc(Cl)ccc12)c1ccc(OC)cc1` (configuration not stated), the GI50 in the assay on MOLT-4 leukemia is 6.77 µM and 4.68 µM; in the assay on BT-549 breast it was 8.14 µM and 8.47 µM; in the assay on HOP-92 NSCLC it was 2.42 µM and 2.12 µM; with SN12C renal, 12.9 µM and 11.4 µM; with EKVX NSCLC, 6.44 µM and 12.7 µM; with SK-MEL-2 melanoma, 15.4 µM and 2.02 µM. The GI50 is 4.19 µM and 5.23 µM in the assay on SF-268 CNS; 2.47 µM and 0.6 µM in the assay on HT29 colon. The TGI was 41.4 µM and 50.9 µM in the assay with MOLT-4 leukemia; 23.4 µM and 22.6 µM in the assay on BT-549 breast; 14.3 µM and 11.5 µM in the assay with HOP-92 NSCLC; 34.3 µM and 37.8 µM in the assay with SN12C renal; 57.7 µM and > 100 µM in the assay with EKVX NSCLC; 33.1 µM and 4.07 µM with SK-MEL-2 melanoma. Moreover, the total growth inhibition concentration (TGI) with SF-268 CNS was 18.4 µM and 21.4 µM; in the assay on HT29 colon it was 13.2 µM and 11.2 µM.
Take `O=C(O)CCC(=O)c1ccc[nH]1`: the TGI in the assay with MOLT-4 leukemia, in the assay with BT-549 breast, with HOP-92 NSCLC, with SN12C renal, with EKVX NSCLC and in the assay on SK-MEL-2 melanoma was over 100 µM in each case. Also, the TGI in the assay on SF-268 CNS and in the assay with HT29 colon was over 100 µM each time.
Turning to `[Cl][Hg][c]1cc(Br)cc(Br)c1`, the GI50 is 1.77 µM in the assay on MOLT-4 leukemia; 1.95 µM with BT-549 breast; 1.7 µM in the assay on HOP-92 NSCLC; 1.61 µM in the assay with SN12C renal; 2.21 µM with EKVX NSCLC; 1.97 µM in the assay with SK-MEL-2 melanoma. The GI50 is 1.76 µM with SF-268 CNS and 2.62 µM with HT29 colon. The TGI in the assay on MOLT-4 leukemia was determined as 5.41 µM; in the assay with BT-549 breast, 5.47 µM; in the assay with HOP-92 NSCLC it was 3.45 µM; in the assay with SN12C renal it was 3.56 µM; with EKVX NSCLC, 4.78 µM; in the assay on SK-MEL-2 melanoma it was 5.66 µM. For the same molecule, the values for the TGI with SF-268 CNS and in the assay with HT29 colon were 4.28 µM and 10.6 µM, respectively.
As for `O=C(Nc1ccc(Cl)cc1F)c1ccccc1O`, the GI50 in the assay with MOLT-4 leukemia is 3.49 µM; in the assay with BT-549 breast, 2.88 µM; in the assay on HOP-92 NSCLC, 1.42 µM; in the assay with SN12C renal, 2.24 µM; in the assay with EKVX NSCLC, 1.96 µM; in the assay with SK-MEL-2 melanoma it was 2.3 µM. Besides, the GI50 with SF-268 CNS is 3.63 µM; in the assay with HT29 colon, 5.32 µM. The TGI with MOLT-4 leukemia is 13.5 µM; with BT-549 breast, 9.88 µM; with HOP-92 NSCLC it was 4.59 µM; with SN12C renal, 8.71 µM; with EKVX NSCLC, 12.5 µM; with SK-MEL-2 melanoma it was 6.59 µM. In addition, the TGI in the assay on SF-268 CNS was over 100 µM; in the assay on HT29 colon it was 92.9 µM.
For `COc1cc(C2CC(c3cccc(Br)c3)=NN2C(C)=O)cc(OC)c1OC` (configuration not stated), the GI50 in the assay with MOLT-4 leukemia was 0.368 µM; in the assay with BT-549 breast, 10.2 µM; in the assay on HOP-92 NSCLC it was 17 µM; in the assay with SN12C renal it was 2.76 µM; with EKVX NSCLC it was 1.48 µM; with SK-MEL-2 melanoma, 3.51 µM. Moreover, the GI50 in the assay on SF-268 CNS is 0.785 µM; in the assay on HT29 colon it was 0.284 µM. Moreover, the TGI is 5.05 µM with MOLT-4 leukemia; 40.7 µM with BT-549 breast; 83.8 µM in the assay with HOP-92 NSCLC; over 81.4 µM with SN12C renal; over 100 µM in the assay on EKVX NSCLC; 55.5 µM in the assay on SK-MEL-2 melanoma. Moreover, the figures for the TGI in the assay on SF-268 CNS and in the assay on HT29 colon were 83.3 µM and 14.9 µM, respectively.
Regarding `C=CCCCCC/C=C\[C@H](O)C#CC#C/C=C/CO`, the GI50 in the assay on MOLT-4 leukemia was 17.3 µM; in the assay on BT-549 breast, 20.1 µM; with HOP-92 NSCLC, 52.8 µM; in the assay with SN12C renal, 15 µM; in the assay with EKVX NSCLC, 52.7 µM; with SK-MEL-2 melanoma it was 83.3 µM. Moreover, the GI50 was 24.5 µM in the assay with SF-268 CNS and over 100 µM in the assay with HT29 colon. The TGI was 49.2 µM in the assay with MOLT-4 leukemia; 54.7 µM in the assay with BT-549 breast; over 100 µM in the assay with HOP-92 NSCLC; 35.1 µM in the assay on SN12C renal; over 100 µM in the assay on EKVX NSCLC; over 100 µM with SK-MEL-2 melanoma. Moreover, the TGI was 70.5 µM with SF-268 CNS and over 100 µM in the assay with HT29 colon.
On to `COc1ccc2c(c1)CCCC(Br)C2=O` (configuration not stated), for which the TGI in the assay on MOLT-4 leukemia was over 48.5 µM; in the assay with BT-549 breast, 7.31 µM; with HOP-92 NSCLC it was 23.3 µM; with SN12C renal, 9.13 µM; with EKVX NSCLC, 37.2 µM; in the assay on SK-MEL-2 melanoma, 4.36 µM. Further, the TGI was 12.5 µM in the assay with SF-268 CNS and 20.2 µM in the assay with HT29 colon.
